Earlier results as cited in patent US20130121964A1, “Pharmacogenomic and Response-Guided Treatment of Infectious Disease Using Yeast-Based Immunotherapy” (GLOBEIMMUNE, INC., priority 2010, published 2013).

Columns and labels:
[1] = in vivo

In the case of `NC(=O)c1ncn([C@@H]2O[C@H](CO)[C@@H](O)[C@H]2O)n1` [Ribavirin, 1-(beta)-D-ribofuranosyl-1H-1,2,4-triazole-3-carboxamide], the “patients with hemolytic anemia” value [1] is listed as 20-30%, the “solubility in anhydrous alcohol” value (anhydrous alcohol) is listed as “slightly soluble” and the solubility in water (water) is listed as “freely soluble”.
